From patent US8846949B2, “Pyrrolopyrazoles as N-type calcium channel blockers” (Janssen Pharmaceutica NV, priority 2012, dated 2014) come the findings set out here.

SMILES strings stand for the structures. Read-outs that look alike come from different tables or passages of the source.

What is called IC50 is the point on the concentration scale where inhibition reaches its midpoint. For orientation: inhibition means the relative decrease from the control value, in per cent.

In experiment [1] the target is T1, N-type calcium channel α1B (Cav2.2), β3 and α2δ subunits (Homo sapiens, UniProt Q00975).
T1 construct: expressed in transfected cells
T1 sequence (Q00975 whole entry): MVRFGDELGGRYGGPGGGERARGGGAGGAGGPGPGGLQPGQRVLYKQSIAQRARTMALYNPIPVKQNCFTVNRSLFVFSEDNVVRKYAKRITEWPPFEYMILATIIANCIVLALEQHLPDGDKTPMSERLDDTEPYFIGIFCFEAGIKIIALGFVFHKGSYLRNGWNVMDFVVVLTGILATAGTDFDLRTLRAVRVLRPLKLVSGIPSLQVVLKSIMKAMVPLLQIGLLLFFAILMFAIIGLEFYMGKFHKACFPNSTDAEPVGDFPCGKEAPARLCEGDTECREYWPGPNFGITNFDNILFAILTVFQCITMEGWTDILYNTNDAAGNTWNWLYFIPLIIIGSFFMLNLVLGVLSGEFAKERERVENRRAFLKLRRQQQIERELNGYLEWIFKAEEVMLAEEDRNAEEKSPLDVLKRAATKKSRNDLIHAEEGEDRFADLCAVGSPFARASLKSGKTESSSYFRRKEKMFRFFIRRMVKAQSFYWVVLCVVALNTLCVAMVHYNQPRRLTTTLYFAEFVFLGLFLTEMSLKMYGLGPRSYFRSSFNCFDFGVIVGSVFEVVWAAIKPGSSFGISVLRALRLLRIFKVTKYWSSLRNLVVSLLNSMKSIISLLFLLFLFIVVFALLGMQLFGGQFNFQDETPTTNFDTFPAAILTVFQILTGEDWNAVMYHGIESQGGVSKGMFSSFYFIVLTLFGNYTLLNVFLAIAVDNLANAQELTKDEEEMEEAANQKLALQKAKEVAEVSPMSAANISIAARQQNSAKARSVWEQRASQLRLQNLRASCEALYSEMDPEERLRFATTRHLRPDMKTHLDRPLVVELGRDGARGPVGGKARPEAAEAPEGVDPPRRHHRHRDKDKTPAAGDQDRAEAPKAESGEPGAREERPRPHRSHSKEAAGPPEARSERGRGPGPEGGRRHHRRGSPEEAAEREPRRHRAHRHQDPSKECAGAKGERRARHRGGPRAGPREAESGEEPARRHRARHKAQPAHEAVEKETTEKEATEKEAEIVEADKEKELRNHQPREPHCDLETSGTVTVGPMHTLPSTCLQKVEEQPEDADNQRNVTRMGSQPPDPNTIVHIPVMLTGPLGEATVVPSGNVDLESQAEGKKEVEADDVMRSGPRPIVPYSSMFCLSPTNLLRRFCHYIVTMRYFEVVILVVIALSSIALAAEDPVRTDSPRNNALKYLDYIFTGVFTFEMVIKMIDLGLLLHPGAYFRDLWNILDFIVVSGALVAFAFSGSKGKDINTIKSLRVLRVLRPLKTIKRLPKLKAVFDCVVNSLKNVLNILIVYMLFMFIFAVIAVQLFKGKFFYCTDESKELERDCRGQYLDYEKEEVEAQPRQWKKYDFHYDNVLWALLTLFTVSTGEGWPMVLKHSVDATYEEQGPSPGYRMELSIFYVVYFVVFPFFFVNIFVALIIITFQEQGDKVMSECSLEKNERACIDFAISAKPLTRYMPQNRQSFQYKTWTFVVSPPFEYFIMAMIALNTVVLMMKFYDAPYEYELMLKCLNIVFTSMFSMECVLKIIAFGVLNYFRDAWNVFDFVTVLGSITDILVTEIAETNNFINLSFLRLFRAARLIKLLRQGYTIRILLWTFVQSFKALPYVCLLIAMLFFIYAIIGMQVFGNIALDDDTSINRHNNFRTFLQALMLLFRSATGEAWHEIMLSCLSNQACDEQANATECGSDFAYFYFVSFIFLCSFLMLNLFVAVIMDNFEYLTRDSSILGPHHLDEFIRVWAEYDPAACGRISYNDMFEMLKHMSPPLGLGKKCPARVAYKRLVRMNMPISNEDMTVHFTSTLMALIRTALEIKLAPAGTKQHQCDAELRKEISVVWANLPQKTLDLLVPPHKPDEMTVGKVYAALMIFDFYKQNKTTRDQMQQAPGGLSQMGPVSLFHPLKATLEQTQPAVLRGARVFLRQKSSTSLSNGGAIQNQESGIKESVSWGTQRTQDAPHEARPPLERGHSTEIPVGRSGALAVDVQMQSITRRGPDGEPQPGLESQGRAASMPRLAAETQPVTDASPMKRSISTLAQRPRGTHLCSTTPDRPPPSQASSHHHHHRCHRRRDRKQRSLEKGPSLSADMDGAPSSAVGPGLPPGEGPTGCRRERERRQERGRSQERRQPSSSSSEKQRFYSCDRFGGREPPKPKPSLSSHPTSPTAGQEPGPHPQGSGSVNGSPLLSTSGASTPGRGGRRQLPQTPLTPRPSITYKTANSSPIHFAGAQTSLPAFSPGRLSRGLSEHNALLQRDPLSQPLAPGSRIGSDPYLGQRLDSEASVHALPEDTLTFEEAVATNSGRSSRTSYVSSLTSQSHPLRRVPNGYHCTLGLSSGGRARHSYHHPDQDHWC
T1 sequence (P54284 whole entry partner): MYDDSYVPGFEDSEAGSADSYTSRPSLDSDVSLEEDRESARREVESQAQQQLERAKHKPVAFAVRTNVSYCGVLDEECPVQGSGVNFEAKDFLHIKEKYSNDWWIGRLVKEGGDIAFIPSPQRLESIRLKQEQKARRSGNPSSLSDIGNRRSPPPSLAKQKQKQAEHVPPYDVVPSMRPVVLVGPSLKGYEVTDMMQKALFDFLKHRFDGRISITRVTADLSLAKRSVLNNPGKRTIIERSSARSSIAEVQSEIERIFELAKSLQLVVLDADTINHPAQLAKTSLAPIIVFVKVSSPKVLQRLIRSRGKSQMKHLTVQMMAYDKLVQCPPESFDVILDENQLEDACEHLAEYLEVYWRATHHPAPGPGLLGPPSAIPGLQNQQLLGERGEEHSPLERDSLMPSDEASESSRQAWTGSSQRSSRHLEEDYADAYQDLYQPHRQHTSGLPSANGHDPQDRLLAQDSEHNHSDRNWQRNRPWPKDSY
T1 sequence (P54289 25-956 partner limits assumed): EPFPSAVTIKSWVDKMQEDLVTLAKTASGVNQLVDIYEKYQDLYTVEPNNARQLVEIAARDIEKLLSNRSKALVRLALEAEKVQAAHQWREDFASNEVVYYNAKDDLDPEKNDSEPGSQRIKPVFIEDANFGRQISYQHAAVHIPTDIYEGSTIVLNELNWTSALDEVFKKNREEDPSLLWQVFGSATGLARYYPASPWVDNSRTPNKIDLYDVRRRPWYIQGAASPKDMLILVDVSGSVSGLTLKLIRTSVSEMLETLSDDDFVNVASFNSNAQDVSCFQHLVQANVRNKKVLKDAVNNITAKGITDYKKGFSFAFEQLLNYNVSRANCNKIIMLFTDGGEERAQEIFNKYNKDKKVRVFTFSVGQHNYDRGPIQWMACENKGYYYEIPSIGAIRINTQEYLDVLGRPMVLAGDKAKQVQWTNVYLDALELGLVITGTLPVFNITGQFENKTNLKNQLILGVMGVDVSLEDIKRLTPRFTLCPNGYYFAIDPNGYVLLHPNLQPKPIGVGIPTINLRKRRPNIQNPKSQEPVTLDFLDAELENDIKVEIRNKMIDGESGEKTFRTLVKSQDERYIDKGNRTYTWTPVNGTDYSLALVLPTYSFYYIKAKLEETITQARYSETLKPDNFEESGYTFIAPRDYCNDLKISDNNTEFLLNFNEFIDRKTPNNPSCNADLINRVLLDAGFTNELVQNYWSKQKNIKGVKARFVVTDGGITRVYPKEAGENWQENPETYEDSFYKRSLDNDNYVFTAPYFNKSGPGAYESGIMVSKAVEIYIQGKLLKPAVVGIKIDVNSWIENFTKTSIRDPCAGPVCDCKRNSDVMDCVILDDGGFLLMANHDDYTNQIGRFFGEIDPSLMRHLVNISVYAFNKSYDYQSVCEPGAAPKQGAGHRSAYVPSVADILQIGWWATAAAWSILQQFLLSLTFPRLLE
T1 sequence (P54289 957-1103 partner limits assumed): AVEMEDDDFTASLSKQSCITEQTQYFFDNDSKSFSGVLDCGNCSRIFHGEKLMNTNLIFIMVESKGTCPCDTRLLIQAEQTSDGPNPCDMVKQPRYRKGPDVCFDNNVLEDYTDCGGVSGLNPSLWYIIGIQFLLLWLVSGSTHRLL
Nature of the experiment: Functional assay, antagonism of N-type calcium channel (FDSS calcium mobilization response to KCl depolarization). The class given is cell-based. The settings on record: for IC50: HEK stable cell line, 50 mM KCl depolarization, six-point concentration-response; for inhibition at 0.33 µM: 0.33 μM compound, FDSS, 50 mM KCl. The method in brief: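 HEK cells stably co-expressing α1B (Cav2.2), β3 and α2δ subunits were loaded with calcium dye, preincubated with compound for 5 min, then depolarized with 50 mM KCl and read for 3 min by FDSS fluorescence. IC50 from six-point curves, normalized to KCl maximum and buffer minimum.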
(A change in cytosolic calcium serves as a functional read-out for many receptors and channels.)

The target in a further experiment is T2, N-type calcium channel (Homo sapiens, UniProt Q00975).
T2 construct: expressed in transfected cells
T2 sequence (Q00975 whole entry): as the sequence (Q00975 whole entry) above
T2 sequence (P54284 whole entry partner): as the sequence (P54284 whole entry partner) above
T2 sequence (P54289 25-956 partner limits assumed): as the sequence (P54289 25-956 partner limits assumed) above
T2 sequence (P54289 957-1103 partner limits assumed): as the sequence (P54289 957-1103 partner limits assumed) above
Nature of the experiment: Automated electrophysiology assay (QPatch-HT whole-cell patch clamp). It counts as cell-based. The procedure:
Cells were grown in T175 flasks to 50%-90% confluence. At the time of use, cells were enzymatically treated with Detachin (Genlantis, San Diego, Calif. USA), centrifuged, rinsed, and resuspended in 293 SFM II media (Life Technologies, Grand Island, N.Y. U.S.A.) supplemented with 25 mM HEPES (Sigma-Aldrich, St. Louis, Mo. U.S.A.) to a concentration of 2-3×10^6 cells/mL. Cells were added to the automated cell preparation station on the QPatch-HT (Sophion Biosciences, North Brunswick, N.J. U.S.A.), and following a 10- to 30-min recovery period with gentle stirring, the assay protocol was initiated. During the automated cell preparation, cells were collected, centrifuged and resuspended in an extracellular (EC) solution containing 132 mM NaCl, 1.8 mM CaCl2, 5.4 mM KCl, 0.8 mM MgCl2, 10 mM glucose, and 10 mM HEPES (pH=7.4), adjusted with sucrose to approximately 315 m0sm. The QPlate was primed with an intracellular solution containing 135 mM CsCl, 10 mM EGTA, 4 MgATP, 0.3 NaGTP, and 20 mM HEPES (pH=7.2), adjusted to approximately 290 m0sm with deionized water and the EC solution. Cells were added to the prepared QPlate wells by robotic pipettes of the QPatch-HT.
For cells determined to be in stable whole-cell patch clamp, the EC solution was replaced with a barium (Ba)/triethylammonium (TEA) solution containing 140 mM TEA-Cl, 10 mM BaCl2, 0.8 mM MgCl2, 10 mM glucose and 10 mM HEPES (pH=7.4). High (40 mM) BaCl2 concentrations were made with adjustments to TEA-C1 (90 mM) to maintain the osmolarity. From a resting potential of −80 mV, a train of depolarizing pulses (15 pulses at 5 Hz, +20 mV) was delivered to the cell once every 30 sec for eight trains (4 min total), and the resulting currents were measured during a control period (no compound). This protocol was repeated for each subsequent addition of control buffer with or without compound (three periods total, each with four trains). The current generated in the 1st and 15th pulses of the last train of each period in the presence of each drug concentration was normalized to the current generated during the control period at the respective pulses (representing low- and high-frequency stimulation, respectively). Data from both the second and third drug application periods were analyzed for each cell. A final addition of Ba/TEA solution containing 60-100 μM CdCl2 was made to block all N-type current and to “zero” the currents for each cell. All buffer/compound additions were made using a “spitting” feature of the QPatch-HT, which added three repetitions of 5 μL solution at the beginning of each recording period.
To examine closed-state inactivation, cells were subjected to a channel-activating 50-msec depolarizing step pulse from −80 to +10 mV, followed by a 5-sec nonactivating step to voltages ranging from −130 to −60 mV in 10 mV increments and then a 50-ms step from −80 to +10 mV to assess the remaining current. Currents from the activating voltage pulse were normalized to the peak value of the test pulse following the −130 mV step and fit to a Boltzman equation to obtain the V1/2. Roscovitine (Sigma-Aldrich) was prepared as a 100 mM stock in dimethyl sulfoxide and diluted to the indicated working concentrations. […]. Compounds of Formula (I) were diluted first into dimethyl sulfoxide and then into 10% pluronic F-127 in water (Life Technologies), sonicated for 1 min and diluted into EC buffer. Vehicle controls were run in parallel in all experiments.
Unless otherwise indicated, statistics for comparing among electrophysiological results utilized a one-way analysis of variance with Fisher's least squares determination test for pair-wise comparison.

The mark [2] stands for this setting: high frequency (15th pulse of train, 5 Hz), read-out: QPatch at High Frequency % Inhibition.
Where [3] appears, read: low frequency (1st pulse of train), read-out: QPatch at Low Frequency % Inhibition.

Consider `CCc1ccccc1-n1nc2c(c1-c1ccc(Cl)cc1)CN(C(=O)CNC(=O)OC(C)(C)C)C2` [Cpd 11, tert-Butyl{2-[3-(4-chlorophenyl)-2-(2-ethylphenyl)-2,6-dihydropyrrolo[3,4-c]pyrazol-5 (4H)-yl]-2-oxoethyl}carbamate], for which the IC50 in experiment [1] amounted to 100 nM. Further, on N-type calcium channel (setting [2]), the inhibition at 0.25 µM was 31% and the inhibition at 1 µM came to 68%. Besides, at N-type calcium channel (setting [3]), the inhibition at 0.25 µM turned out to be 14% and the inhibition at 1 µM stood at 37%.

Turning to `CC1CCN(S(=O)(=O)N2Cc3nn(-c4cccc5c4OCC5)c(-c4ccc(Cl)cc4)c3C2)CC1` [Cpd 86, 3-(4-Chlorophenyl)-2-(2,3-dihydro-1-benzofuran-7-yl)-5-[(4-methylpiperidin-1-yl)sulfonyl]-2,4,5,6-tetrahydropyrrolo[3,4-c]pyrazole], in experiment [1], the inhibition at 0.33 µM is 96% and the IC50 was 7 nM. Besides, the inhibition at 0.1 µM at N-type calcium channel (setting [2]) was determined as 33%. Besides, the inhibition at 0.1 µM at N-type calcium channel (setting [3]) was determined as 20%.

For `COc1ccccc1-n1nc2c(c1-c1ccc(Cl)cc1)CN(S(=O)(=O)N1CCCCCC1)C2` [Cpd 55, 5-(Azepan-1-ylsulfonyl)-3-(4-chlorophenyl)-2-(2-methoxyphenyl)-2,4,5,6-tetrahydropyrrolo[3,4-c]pyrazole], the IC50 in experiment [1] was determined as 7 nM. The inhibition at 0.1 µM worked out at 54% on N-type calcium channel (setting [2]) and 25% on N-type calcium channel (setting [3]).

Take `CCCC(C)S(=O)(=O)N1Cc2nn(-c3ccc(C)cc3OC)c(-c3ccc(Cl)cc3)c2C1` (centres unmarked) [Cpd 76, 3-(4-Chlorophenyl)-2-(2-methoxy-4-methylphenyl)-5-[(1-methylbutyl)sulfonyl]-2,4,5,6-tetrahydropyrrolo[3,4-c]pyrazole]: in experiment [1], the inhibition at 0.33 µM was 90% and the IC50 stood at 21 nM. The inhibition at 1 µM at N-type calcium channel (setting [2]) was 30%. The inhibition at 1 µM on N-type calcium channel (setting [3]) was -3%.

Consider `COc1cc(F)ccc1-n1nc2c(c1-c1ccc(Cl)cc1)CN(S(=O)(=O)C(C)C)C2` [Cpd 71, 3-(4-Chlorophenyl)-2-(4-fluoro-2-methoxyphenyl)-5-[(1-methylethyl)sulfonyl]-2,4,5,6-tetrahydropyrrolo[3,4-c]pyrazole], for which, in experiment [1], the inhibition at 0.33 µM is 91% and the IC50 stood at 21 nM. Besides, the inhibition at 0.1 µM at N-type calcium channel (setting [2]) came to 1%. For the same compound, the inhibition at 0.1 µM at N-type calcium channel (setting [3]) is -30%.

Consider `COc1ccccc1-n1nc2c(c1-c1ccc(Cl)cc1)CN(S(=O)(=O)CCNS(=O)(=O)N(C)C)C2` [Cpd 46, N′-(2-{[3-(4-Chlorophenyl)-2-(2-methoxyphenyl)-2,6-dihydropyrrolo[3,4-c]pyrazol-5(4H)-yl]sulfonyl}ethyl)-N,N-dimethylsulfamide], for which, in experiment [1], the half-inhibitory concentration (IC50) was found to be 5 nM. Besides, the inhibition at 0.1 µM on N-type calcium channel (setting [2]) is -6%; at N-type calcium channel (setting [3]), -8%.

Turning to `CCOc1ccccc1-n1nc2c(c1-c1ccc(Cl)cc1)CN(S(=O)(=O)C1CCCCC1)C2` [Cpd 52, 3-(4-Chlorophenyl)-5-(cyclohexylsulfonyl)-2-(2-ethoxyphenyl)-2,4,5,6-tetrahydropyrrolo[3,4-c]pyrazole], in experiment [1], the IC50 was determined as 2 nM. The inhibition at 0.1 µM on N-type calcium channel (setting [2]) worked out at 50%; at N-type calcium channel (setting [3]) it was 40%.

As to `COc1ccccc1-n1nc2c(c1-c1ccc(Cl)cc1)CN(S(=O)(=O)CC(F)(F)F)C2` [Cpd 36, 3-(4-Chlorophenyl)-2-(2-methoxyphenyl)-5-[(2,2,2-trifluoroethyl)sulfonyl]-2,4,5,6-tetrahydropyrrolo[3,4-c]pyrazole], the IC50 in experiment [1] came to 15 nM. In addition, the inhibition at 0.25 µM was 58% on N-type calcium channel (setting [2]) and 42% on N-type calcium channel (setting [3]).

As to `COc1ccccc1-n1nc2c(c1-c1ccc(Cl)cc1)CN(S(=O)(=O)C1CCCCC1)C2` [Cpd 37, 3-(4-Chlorophenyl)-5-(cyclohexylsulfonyl)-2-(2-methoxyphenyl)-2,4,5,6-tetrahydropyrrolo[3,4-c]pyrazole], the IC50 in experiment [1] came out at 16 nM. The results for the inhibition at 0.25 µM at N-type calcium channel (setting [2]) and on N-type calcium channel (setting [3]) were 73% and 61%, respectively.

As for `COc1ccccc1-n1nc2c(c1-c1ccc(Cl)cc1)CN(S(=O)(=O)N1CCC(C)CC1)C2` [Cpd 57, 3-(4-Chlorophenyl)-2-(2-methoxyphenyl)-5-[(4-methylpiperidin-1-yl)sulfonyl]-2,4,5,6-tetrahydropyrrolo[3,4-c]pyrazole], in experiment [1], the inhibition at 0.33 µM was determined as 95% and the IC50 came to 8 nM. Further, the inhibition at 1 µM on N-type calcium channel (setting [2]) was 82%. On N-type calcium channel (setting [3]), the inhibition at 1 µM came out at 69%.

As to `CC1CCN(S(=O)(=O)N2Cc3nn(-c4cccc5c4OCO5)c(-c4ccc(Cl)cc4)c3C2)CC1` [Cpd 83, 2-(1,3-Benzodioxol-4-yl)-3-(4-chlorophenyl)-5-[(4-methylpiperidin-1-yl)sulfonyl]-2,4,5,6-tetrahydropyrrolo[3,4-c]pyrazole], the inhibition at 0.33 µM in experiment [1] worked out at 92%. In addition, in experiment [1], the IC50 came out at 20 nM. Further, the inhibition at 0.1 µM on N-type calcium channel (setting [2]) came to 27%; at N-type calcium channel (setting [3]) it was 12%.

`CCCC(C)S(=O)(=O)N1Cc2nn(-c3ccccc3OC)c(-c3ccc(Cl)cc3)c2C1` (centres unmarked) [Cpd 41, 3-(4-Chlorophenyl)-2-(2-methoxyphenyl)-5-[(1-methylbutyl)sulfonyl]-2,4,5,6-tetrahydropyrrolo[3,4-c]pyrazole]: in experiment [1], the inhibition at 0.33 µM was found to be 90% and the half-inhibitory concentration (IC50) came out at 19 nM. At N-type calcium channel (setting [2]), the inhibition at 0.1 µM came to 40% and the inhibition at 1 µM is 91%. Also, on N-type calcium channel (setting [3]), the inhibition at 0.1 µM was 7% and the inhibition at 1 µM worked out at 80%.

In the case of `COC(=O)CCS(=O)(=O)N1Cc2nn(-c3ccccc3OC(F)(F)F)c(-c3ccc(Cl)cc3)c2C1` [Cpd 47, Methyl 3-{[3-(4-chlorophenyl)-2-[2-(trifluoromethoxy)phenyl]-2,6-dihydropyrrolo[3,4-c]pyrazol-5(4H)-yl]sulfonyl}propanoate], the IC50 in experiment [1] is 31 nM. Besides, the inhibition at 0.1 µM is 36% on N-type calcium channel (setting [2]) and 8% on N-type calcium channel (setting [3]).

As to `CN(C)S(=O)(=O)N1Cc2nn(-c3ccccc3OCC(F)F)c(-c3ccc(Cl)cc3)c2C1` [Cpd 95, 3-(4-Chlorophenyl)-2-[2-(2,2-difluoroethoxy)phenyl]-N,N-dimethyl-2,6-dihydropyrrolo[3,4-c]pyrazole-5(4H)-sulfonamide], in experiment [1], the inhibition at 0.33 µM is 79% and the IC50 came out at 50 nM. Also, the inhibition at 0.1 µM on N-type calcium channel (setting [2]) is 23%. Further, the inhibition at 0.1 µM on N-type calcium channel (setting [3]) is -4%.

On to `CCc1ccccc1-n1nc2c(c1-c1ccc(Cl)cc1)CN(C(=O)C(F)(F)F)C2` [Cpd 6, 3-(4-Chlorophenyl)-2-(2-ethylphenyl)-5-(trifluoroacetyl)-2,4,5,6-tetrahydropyrrolo[3,4-c]pyrazole], for which, in experiment [1], the IC50 amounted to 180 nM. The inhibition at 1 µM worked out at 23% at N-type calcium channel (setting [2]) and 16% at N-type calcium channel (setting [3]).

On to `COc1ccccc1-n1nc2c(c1-c1ccc(Cl)cc1)CN(S(=O)(=O)N1C[C@H](C)O[C@@H](C)C1)C2` (mixture of isomers) [Cpd 61, 3-(4-Chlorophenyl)-5-{[(2S,6S)-2,6-dimethylmorpholin-4-yl]sulfonyl}-2-(2-methoxyphenyl)-2,4,5,6-tetrahydropyrrolo[3,4-c]pyrazole], for which, in experiment [1], the IC50 came to 5 nM. Moreover, the results for the inhibition at 0.1 µM on N-type calcium channel (setting [2]) and on N-type calcium channel (setting [3]) were 50% and 53%, respectively.
